From ChEMBL document CHEMBL5143510, “Structure modification and biological evaluation of indole-chalcone derivatives as anti-tumor agents through dual targeting tubulin and TrxR” (Eur J Med Chem, 2022)
Calls of active or inactive are those of the source. The rule behind the calls is not given here.

Experiments:
[1] = Antiproliferative activity against vincristine resistant human HCT-8/VCR cells assessed as reduction in cell viability incubated for 48 hrs by MTT assay; format: functional, cell-based
MHCC97H [2] = assay: Induction of apoptosis in human MHCC97H cells assessed as decrease in MMP level incubated for 24 hrs by JC-1 staining based fluorescence microscopy; format: functional, cell-based; conditions: dose 5-50 nM, DDE = dose-dependent effect
Tubulin (Homo sapiens) [3] = target: T1, Tubulin (Homo sapiens) (UniProt P68371+Q9H4B7+P0DPH7+P68366+Q13509+Q71U36+P04350+Q3ZCM7+P07437+P68363+Q9BQE3+Q6PEY2+Q13885+Q9BVA1+Q9BUF5); assay: Disruption of microtubule network in human MHCC97H cells assessed as dotted morphology at 5 to 50 nM incubated for 24 hrs by Hoechst 33342 staining based confocal microscopy; format: cell-based; conditions: dose 5-50 nM
MHCC97H [4] = assay: Induction of morphological changes in human MHCC97H cells assessed as cell shrinkage at 5 to 50 nM incubated for 48 hrs by phase contrast microscopic analysis; format: functional, cell-based; conditions: dose 5-50 nM
A549 = assay: Antiproliferative activity against human A549 cells assessed as reduction in cell viability incubated for 48 hrs by MTT assay; format: functional, cell-based; conditions: A549, 48 h
NCI/ADR-RES = assay: Antiproliferative activity against adriamycin resistant human MCF7/ADR cells assessed as reduction in cell viability incubated for 48 hrs by MTT assay; format: functional, cell-based
Tubulin (Homo sapiens) [5] = target: T1, Tubulin (Homo sapiens); assay: Disruption of microtubule network in human MHCC97H cells assessed as punctate morphology at 5 to 50 nM incubated for 24 hrs by Hoechst 33342 staining based confocal microscopy; format: cell-based; conditions: dose 5-50 nM
Tubulin (Homo sapiens) [6] = target: T1, Tubulin (Homo sapiens); assay: Inhibition of colchicine binding to tubulin (unknown origin) at 10 uM by competitive binding assay relative to control; format: protein-complex assay
MHCC97H [7] = assay: Induction of apoptosis in human MHCC97H cells assessed as downregulation of Bcl-2 expression at 5 to 50 nM measured after 24 to 48 hrs by Western blot analysis; format: functional, cell-based; conditions: dose 5-50 nM, time 24-48 hrs
[8] = Resistance index, ratio of IC50 for antiproliferative activity against vincristine resistant human HCT-8/VCR cells to IC50 for antiproliferative activity against human HCT-8 cells; format: functional
[9] = Selectivity ratio, ratio of IC50 for cytotoxicity against human HLF cells to IC50 for antiproliferative activity against human MHCC97H cells; format: toxicity, cell-based; conditions: HLF cells versus MHCC97H cells, read-out: Ratio IC50
A2780/PTX = assay: Downregulation of TrxR in paclitaxel resistant human A2780/PTX cells at 10 to 50 nM incubated for 48 hrs by Western blot analysis; format: functional, cell-based; conditions: dose 10-50 nM
Tubulin (Homo sapiens) [10] = target: T1, Tubulin (Homo sapiens); assay: Binding affinity to tubulin (unknown origin) assessed as reduction in peak area in the filtrate at 30 uM incubated for 1 hr by HPLC analysis; format: protein-complex assay
Tubulin (Homo sapiens) [11] = target: T1, Tubulin (Homo sapiens); assay: Induction of microtubule disruption in human MHCC97H cells assessed as occurence of cell shrinkage at 10 nM measured after 8 hrs by immunofluorescence based confocal microscopic analysis
[12] = Toxicity in BALB/c mouse xenografted with human MHCC97H cells assessed as change in body weight at 30 mg/kg, ip administered every other day for 30 days; format: organism-based; conditions: in vivo, 720 h, time 30 day
[13] = Selectivity ratio, ratio of IC50 for cytotoxicity against human HUVEC cells to IC50 for antiproliferative activity against human MHCC97H cells; format: toxicity, cell-based; conditions: HUVEC cells versus MHCC97H cells, read-out: Ratio IC50
MHCC97H [14] = assay: Downregulation of TrxR in human MHCC97H cells at 5 to 50 nM incubated for 48 hrs by Western blot analysis; format: functional, cell-based; conditions: dose 5-50 nM
Homo sapiens = species: Homo sapiens; assay: Irreversible inhibition of TrxR (unknown origin) using DTNB as substrate at 2.5 uM incubated for 2 hrs in presence of NADPH followed by substrate addition ultrafiltration based microplate reader analysis relative to control
[15] = Cytotoxicity against human MCF-10A cells assessed as reduction in cell viability incubated for 48 hrs by MTT assay; format: toxicity, cell-based
MHCC97H [16] = assay: Induction of morphological changes in human MHCC97H cells assessed as cell rounding at 5 to 50 nM incubated for 48 hrs by phase contrast microscopic analysis; format: functional, cell-based; conditions: dose 5-50 nM
MHCC97H [17] = assay: Induction of morphological changes in human MHCC97H cells assessed as loss of adherent property at 5 to 50 nM incubated for 48 hrs by phase contrast microscopic analysis; format: functional, cell-based; conditions: dose 5-50 nM
[18] = Resistance index, ratio of IC50 for antiproliferative activity against paclitaxel resistant human A2780/PTX cells to IC50 for antiproliferative activity against human A2780 cells; format: functional
MHCC97H [19] = assay: Induction of apoptosis in human MHCC97H cells assessed as decrease in MMP level incubated for 24 hrs by JC-1 staining based flow cytometry; format: functional, cell-based; conditions: dose 5-50 nM, DDE = dose-dependent effect
Tubulin (Homo sapiens) [20] = target: T1, Tubulin (Homo sapiens); assay: Inhibition of colchicine binding to tubulin (unknown origin) at 0.312 uM by competitive binding assay relative to control; format: protein-complex assay
Tubulin (Homo sapiens) [21] = target: T1, Tubulin (Homo sapiens); assay: Disruption of microtubule network in human MHCC97H cells assessed as shrunken morphology at 5 to 50 nM incubated for 24 hrs by Hoechst 33342 staining based confocal microscopy; format: cell-based; conditions: dose 5-50 nM
HUVEC [22] = assay: Induction of morphological changes in human HUVEC cells assessed as cell shrinkage at 50 nM incubated for 48 hrs by phase contrast microscopic analysis; format: toxicity, cell-based; conditions: 0.05 µM
Tubulin (Homo sapiens) [23] = target: T1, Tubulin (Homo sapiens); assay: Inhibition of colchicine binding to tubulin (unknown origin) at 0.625 uM by competitive binding assay relative to control; format: protein-complex assay
Tubulin (Homo sapiens) [24] = target: T1, Tubulin (Homo sapiens); assay: Inhibition of colchicine binding to tubulin (unknown origin) at 1.25 uM by competitive binding assay relative to control; format: protein-complex assay
[25] = Inhibition of TrxR (unknown origin) using DTNB as substrate incubated for 5 mins in presence of NADPH followed by substrate addition by microplate reader analysis; parameters: species or system Homo sapiens
MHCC97H [26] = assay: Induction of cell cycle arrest in human MHCC97H cells assessed as decrease in accumulation of cells at G1 phase at 5 to 50 nM measured after 48 hrs by propidium iodide staining based flow cytometry; format: functional; conditions: dose 5-50 nM
Tubulin = assay: Inhibition of tubulin polymerization (unknown origin) assessed as decrease in fluorescence intensity incubated for 90 mins by DAPI staining based microplate reader analysis; format: protein-complex assay, Homo sapiens
MHCC97H [27] = assay: Induction of ROS production in human MHCC97H cells assessed as increase in accumulation ROS level at 5 to 50 nM incubated for 4 hrs by DCFH-DA staining based fluorescence microscopy; format: functional, cell-based; conditions: dose 5-50 nM
[28] = Selectivity ratio, ratio of IC50 for cytotoxicity against human MCF-10A cells to IC50 for antiproliferative activity against human MHCC97H cells; format: toxicity, cell-based; conditions: MCF-10A cells versus MHCC97H cells, read-out: Ratio IC50
[29] = Cytotoxicity against human HLF cells assessed as reduction in cell viability incubated for 48 hrs by MTT assay; format: toxicity, cell-based
HUVEC [30] = assay: Induction of morphological changes in human HUVEC cells assessed as loss of cell interactions at 50 nM incubated for 48 hrs by phase contrast microscopic analysis; format: toxicity, cell-based; conditions: 0.05 µM
MHCC97H [31] = assay: Induction of apoptosis in human MHCC97H cells assessed as upregulation of Bad expression measured after 24 to 48 hrs by Western blot analysis; format: functional, cell-based; conditions: dose 5-50 nM, time 24-48 hrs, DDE = dose-dependent effect
HeLa = assay: Antiproliferative activity against human HeLa cells assessed as reduction in cell viability incubated for 48 hrs by MTT assay; format: functional, cell-based

Question: Which IC50 [1] does the source give for `COc1ccc2c(/C=C(\C)C(=O)c3cc(OC)c(OC)c([Se]C)c3)c[nH]c2c1` here?
Answer: The IC50 was 45 nM.

Question: And the Activity (MHCC97H [2])?
Answer: The Activity was “Dde”.

Question: What about the Activity (Tubulin (Homo sapiens) [3]) of the same compound?
Answer: Its Activity is “Active”.

Question: What about the Activity (MHCC97H [4]) of the same compound?
Answer: Its Activity is “Active”.

Question: And the IC50 (A549)?
Answer: Its IC50 is 8 nM.

Question: And the IC50 (NCI/ADR-RES)?
Answer: The IC50 was 18 nM.

Question: What about the Activity (Tubulin (Homo sapiens) [5]) of the same compound?
Answer: Its Activity is “Active”.

Question: And the inhibition (Tubulin (Homo sapiens) [6])?
Answer: The inhibition was 94.4%.

Question: What about the Activity (MHCC97H [7]) of the same compound?
Answer: Its Activity is “Active”.

Question: And the “Ratio IC50” value [8]?
Answer: The value was 1.56.

Question: And the selectivity ratio [9]?
Answer: The selectivity ratio was 394.

Question: What about the Activity (A2780/PTX) of the same compound?
Answer: Its Activity is “Active”.

Question: What about the Activity (Tubulin (Homo sapiens) [10]) of the same compound?
Answer: Its Activity is “Active”.

Question: And the Activity (Tubulin (Homo sapiens) [11])?
Answer: Its Activity is “Active”.

Question: What about the Activity [12] of the same compound?
Answer: The Activity was “Non-Toxic”.

Question: What about the selectivity ratio [13] of the same compound?
Answer: Its selectivity ratio is 9.33.

Question: What about the Activity (MHCC97H [14]) of the same compound?
Answer: The Activity was “Active”.

Question: And the inhibition (Homo sapiens)?
Answer: Its inhibition is 58.4%.

Question: And the IC50 at 48 h [15]?
Answer: Its IC50 at 48 h is 723 nM.

Question: And the Activity (MHCC97H [16])?
Answer: Its Activity is “Active”.

Question: And the Activity (MHCC97H [17])?
Answer: The Activity was “Active”.

Question: And the “Ratio IC50” value [18]?
Answer: The value was 1.11.

Question: What about the Activity (MHCC97H [19]) of the same compound?
Answer: The Activity was “Dde”.

Question: And the inhibition (Tubulin (Homo sapiens) [20])?
Answer: Its inhibition is 30.7%.

Question: And the Activity (Tubulin (Homo sapiens) [21])?
Answer: Its Activity is “Active”.

Question: What about the Activity (HUVEC [22]) of the same compound?
Answer: Its Activity is “Toxic”.

Question: What about the inhibition (Tubulin (Homo sapiens) [23]) of the same compound?
Answer: The inhibition was 45%.

Question: And the inhibition (Tubulin (Homo sapiens) [24])?
Answer: The inhibition was 56.5%.

Question: What about the IC50 [25] of the same compound?
Answer: Its IC50 is 3730 nM.

Question: What about the Activity (MHCC97H [26]) of the same compound?
Answer: Its Activity is “Active”.

Question: And the IC50 (Tubulin)?
Answer: Its IC50 is 810 nM.

Question: And the Activity (MHCC97H [27])?
Answer: The Activity was “Active”.

Question: What about the selectivity ratio [28] of the same compound?
Answer: Its selectivity ratio is 121.

Question: And the IC50 at 48 h [29]?
Answer: The IC50 at 48 h was 2370 nM.

Question: And the Activity (HUVEC [30])?
Answer: Its Activity is “Toxic”.

Question: What about the Activity (MHCC97H [31]) of the same compound?
Answer: Its Activity is “Dde”.

Question: What about the IC50 (HeLa) of the same compound?
Answer: Its IC50 is 21 nM.
